Test results published in patent publication US11643421B2, “Process for the preparation of tricyclic PI3K inhibitor compounds and methods for using the same for the treatment of cancer” (priority 2015, dated 2023).

What was measured:
U87 intracranial tumors = assay: Efficacy in U87 intracranial model; type: in vivo, mice; details: 15 mg/kg PO daily for 2 weeks, micro-CT
Excerpt: These U87 and GS2 models are PTEN-deficient, with the GS2 cell line presenting a copy number loss at the PTEN locus (Gunther H S, et al.) with no detectable PTEN protein by western blot (Carlson […], Schroeder […]., “Establishment, maintenance and in vitro and in vivo applications of primary human glioblastoma multiforme (GBM) xenograft models for translational biology studies and drug discovery”, Curr Protoc Pharmacol. 2011; Chapter 14: Unit 14 16). The identity of the two cell lines was confirmed by STR profiling (DNA Diagnostics Center) using cells within 5 passages of those utilized for in vivo studies. […] The differences between treatment groups were evaluated using Student's t test in Prism (Prism 5, GraphPad). […] Body temperature was continuously monitored using a rectal probe and was maintained at 37° C. by a heated-air flow system regulated by in-house LabVIEW controller software. […] 12-20 axial 0.5-0.8 mm-thick slices were acquired with a 20×20 mm field of view (FOV), and 128×128 matrix, zero-filled to 256×256 mages. […] Brain sample preparation, micro-CT scanning, and image analysis for ex-vivo micro-CT imaging were performed as described previously (de […], Nishimura M C, Phillips H, Carano […] micro-CT imaging of the postmortem brain”, J. Neurosci. Methods. 2008; 171 (2): 207-213).

Axl = Axl (Homo sapiens, UniProt P30530); assay: biochemical; details: read-out: % inhib
Chain of Axl (P30530 26-894, species assumed): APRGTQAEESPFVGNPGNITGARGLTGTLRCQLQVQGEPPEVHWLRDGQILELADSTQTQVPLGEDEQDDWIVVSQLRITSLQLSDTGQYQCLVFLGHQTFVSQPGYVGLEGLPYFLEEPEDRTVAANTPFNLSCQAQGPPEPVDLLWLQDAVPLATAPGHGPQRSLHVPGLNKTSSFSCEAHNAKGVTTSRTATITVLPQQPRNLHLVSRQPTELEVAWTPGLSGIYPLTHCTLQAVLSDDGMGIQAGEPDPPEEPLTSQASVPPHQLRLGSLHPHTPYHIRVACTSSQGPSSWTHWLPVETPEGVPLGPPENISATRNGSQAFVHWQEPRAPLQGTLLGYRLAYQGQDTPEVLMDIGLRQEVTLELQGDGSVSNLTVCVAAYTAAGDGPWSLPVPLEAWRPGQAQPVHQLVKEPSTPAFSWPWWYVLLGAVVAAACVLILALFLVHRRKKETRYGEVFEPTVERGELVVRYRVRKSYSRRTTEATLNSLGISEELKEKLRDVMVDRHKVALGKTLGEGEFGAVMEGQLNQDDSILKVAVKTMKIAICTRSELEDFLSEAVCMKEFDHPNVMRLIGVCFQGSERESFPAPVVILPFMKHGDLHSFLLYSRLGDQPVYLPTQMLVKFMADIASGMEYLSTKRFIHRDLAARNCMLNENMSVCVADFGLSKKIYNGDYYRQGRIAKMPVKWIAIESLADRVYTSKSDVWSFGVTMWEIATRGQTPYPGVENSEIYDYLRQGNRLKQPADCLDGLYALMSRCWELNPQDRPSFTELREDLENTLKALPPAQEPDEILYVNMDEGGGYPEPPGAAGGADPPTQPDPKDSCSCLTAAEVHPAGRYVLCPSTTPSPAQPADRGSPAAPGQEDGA

CLK3 = CLK3 (Homo sapiens, UniProt P49761); assay: biochemical; details: read-out: % inhib
Chain of CLK3 (P49761 whole entry, species assumed): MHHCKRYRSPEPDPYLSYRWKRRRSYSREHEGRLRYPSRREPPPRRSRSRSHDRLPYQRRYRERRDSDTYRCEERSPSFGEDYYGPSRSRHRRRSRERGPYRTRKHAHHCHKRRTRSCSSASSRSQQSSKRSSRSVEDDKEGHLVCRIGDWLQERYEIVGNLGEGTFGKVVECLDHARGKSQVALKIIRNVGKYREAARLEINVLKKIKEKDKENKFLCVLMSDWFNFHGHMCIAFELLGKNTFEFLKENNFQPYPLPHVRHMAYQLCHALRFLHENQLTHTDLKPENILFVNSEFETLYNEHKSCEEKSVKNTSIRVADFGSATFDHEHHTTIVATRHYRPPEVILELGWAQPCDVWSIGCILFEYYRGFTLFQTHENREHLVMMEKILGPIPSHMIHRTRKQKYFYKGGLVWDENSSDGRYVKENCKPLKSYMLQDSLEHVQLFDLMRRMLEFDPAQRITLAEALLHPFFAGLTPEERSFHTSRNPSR

[1] = Brain binding, dialysis of brain homogenate; type: in vitro ADME; details: mouse brain homogenate, n=3, read-out: free fraction in brain tissues
Description: Following dialysis, tissues and buffer samples were analyzed as described for the plasma protein binding studies.

Abl = Abl (Homo sapiens, UniProt P00519); assay: biochemical; details: read-out: % inhib
Chain of Abl (P00519 whole entry, species assumed): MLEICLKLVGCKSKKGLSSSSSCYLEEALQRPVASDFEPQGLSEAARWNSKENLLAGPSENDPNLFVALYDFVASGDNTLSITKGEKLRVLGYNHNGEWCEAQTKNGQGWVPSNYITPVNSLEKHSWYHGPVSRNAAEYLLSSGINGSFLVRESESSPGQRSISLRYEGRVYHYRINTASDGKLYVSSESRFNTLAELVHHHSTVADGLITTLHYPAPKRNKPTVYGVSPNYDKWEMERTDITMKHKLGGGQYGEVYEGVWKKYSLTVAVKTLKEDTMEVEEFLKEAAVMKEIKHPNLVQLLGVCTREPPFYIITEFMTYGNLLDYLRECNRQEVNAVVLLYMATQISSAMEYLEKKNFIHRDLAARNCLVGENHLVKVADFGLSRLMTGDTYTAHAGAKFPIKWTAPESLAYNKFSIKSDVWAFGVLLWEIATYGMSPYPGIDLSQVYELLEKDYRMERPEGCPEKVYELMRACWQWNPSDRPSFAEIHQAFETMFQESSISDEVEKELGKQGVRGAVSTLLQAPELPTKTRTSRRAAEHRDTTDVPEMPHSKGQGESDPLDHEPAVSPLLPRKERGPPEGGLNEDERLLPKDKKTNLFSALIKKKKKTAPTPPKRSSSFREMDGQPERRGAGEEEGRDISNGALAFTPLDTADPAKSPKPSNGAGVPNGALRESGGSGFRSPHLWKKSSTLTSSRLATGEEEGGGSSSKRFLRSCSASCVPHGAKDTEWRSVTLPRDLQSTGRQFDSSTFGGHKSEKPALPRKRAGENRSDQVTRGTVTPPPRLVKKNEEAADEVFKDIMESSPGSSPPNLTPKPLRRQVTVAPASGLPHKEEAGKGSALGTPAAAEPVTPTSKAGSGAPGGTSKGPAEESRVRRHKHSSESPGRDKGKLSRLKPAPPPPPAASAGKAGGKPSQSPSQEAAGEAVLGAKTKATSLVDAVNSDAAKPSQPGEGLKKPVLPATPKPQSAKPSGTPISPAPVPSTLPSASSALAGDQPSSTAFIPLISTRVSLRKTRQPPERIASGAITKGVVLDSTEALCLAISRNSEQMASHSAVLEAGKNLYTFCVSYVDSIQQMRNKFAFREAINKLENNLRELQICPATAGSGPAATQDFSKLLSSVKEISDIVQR

GCK = GCK (Homo sapiens, UniProt Q12851); assay: biochemical; details: read-out: % inhib
Chain of GCK (Q12851 whole entry): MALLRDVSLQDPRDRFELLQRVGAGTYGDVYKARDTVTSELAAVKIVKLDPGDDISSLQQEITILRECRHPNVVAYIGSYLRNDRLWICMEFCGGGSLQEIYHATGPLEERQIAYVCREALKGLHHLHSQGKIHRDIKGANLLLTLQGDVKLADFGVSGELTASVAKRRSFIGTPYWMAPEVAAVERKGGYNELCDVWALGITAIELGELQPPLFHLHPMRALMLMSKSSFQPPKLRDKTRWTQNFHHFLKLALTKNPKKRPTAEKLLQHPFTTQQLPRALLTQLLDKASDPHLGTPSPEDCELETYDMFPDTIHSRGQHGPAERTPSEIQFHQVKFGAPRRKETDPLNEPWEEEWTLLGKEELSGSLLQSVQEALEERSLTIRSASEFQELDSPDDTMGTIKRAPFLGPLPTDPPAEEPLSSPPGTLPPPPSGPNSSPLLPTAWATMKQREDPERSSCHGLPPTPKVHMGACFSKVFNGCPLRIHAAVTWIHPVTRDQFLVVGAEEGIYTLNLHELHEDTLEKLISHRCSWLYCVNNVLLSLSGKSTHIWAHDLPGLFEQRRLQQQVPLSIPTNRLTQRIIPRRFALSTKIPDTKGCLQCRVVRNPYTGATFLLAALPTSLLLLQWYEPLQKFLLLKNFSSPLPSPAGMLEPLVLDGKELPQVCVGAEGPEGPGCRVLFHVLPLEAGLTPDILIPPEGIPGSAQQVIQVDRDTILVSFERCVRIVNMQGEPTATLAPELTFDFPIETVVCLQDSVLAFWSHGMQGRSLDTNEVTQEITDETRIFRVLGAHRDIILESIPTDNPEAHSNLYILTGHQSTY

[2] = In vivo pharmacokinetics IV and PO; set-up: species or system female CD-1 mice; details: Mouse
Description: The hepatocyte stability of compound IIIat was evaluated across preclinical species. Certain in vivo pharmacokinetic parameters were also evaluated. […] Male Sprague-Dawley rats, female CD-1 mice, male cynomolgus monkeys and beagle dogs were dosed intravenously with 1 mg/kg of compound IIIat prepared in 60% PEG400/10% Ethanol. Compound IIIat was administered orally (PO) at the indicated dose in 0.5% methylcellulose with 0.2% Tween 80 (MCT).

high-grade gliomas = assay: Phase I study, best overall response (RANO); type: in vivo, human; details: evaluable patients
Description: Tumor response was determined by either an assessment of FDG-PET or by Response Assessment in Neuro-Oncology (RANO).
Tumor response under the RANO guidelines was done generally in accordance with the Wen method (Wen P Y, Macdonald D R, Reardon D A, et al. “Updated response assessment criteria for high-grade gliomas: Response Assessment in Neuro-Oncology Working Group”, J Clin Oncol 2010; 28:1963-72) where the disease is categorized as “complete response”, “partial response”, “stable disease” and “progression”. Among other factors, a complete response required all of the following: complete disappearance of all enhancing measurable and non-measurable disease sustained for at least 4 weeks; no new lesions; and stable or improved non-enhancing (T2/FLAIR) lesions. A partial response required, among other factors, ≥50% decrease, compared with baseline, in the sum of the products of the perpendicular diameters of all measurable enhancing lesions (such as measured by MRI) sustained for at least 4 weeks; no progression of non-measurable disease; and no new lesions.

MYLK2 (skMLCK) = MYLK2 (skMLCK) (Homo sapiens, UniProt Q9H1R3); assay: biochemical; details: read-out: % inhib
Chain of MYLK2 (skMLCK) (Q9H1R3 whole entry): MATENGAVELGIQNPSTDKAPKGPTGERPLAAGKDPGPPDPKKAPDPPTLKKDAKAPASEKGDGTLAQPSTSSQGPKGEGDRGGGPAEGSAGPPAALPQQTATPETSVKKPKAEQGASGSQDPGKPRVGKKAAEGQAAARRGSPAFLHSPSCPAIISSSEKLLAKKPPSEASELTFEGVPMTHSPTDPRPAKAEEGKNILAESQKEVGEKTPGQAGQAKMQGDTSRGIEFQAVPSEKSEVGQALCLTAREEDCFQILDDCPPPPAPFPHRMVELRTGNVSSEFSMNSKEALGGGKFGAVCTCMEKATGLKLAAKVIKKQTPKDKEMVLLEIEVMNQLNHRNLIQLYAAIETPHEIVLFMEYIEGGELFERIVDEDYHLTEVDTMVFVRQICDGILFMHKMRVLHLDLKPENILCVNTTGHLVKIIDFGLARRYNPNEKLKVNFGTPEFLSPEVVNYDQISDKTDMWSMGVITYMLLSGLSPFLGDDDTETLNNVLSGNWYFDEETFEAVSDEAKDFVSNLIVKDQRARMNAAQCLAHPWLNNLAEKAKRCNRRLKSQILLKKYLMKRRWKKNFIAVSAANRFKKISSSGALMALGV

CHK1 = CHK1 (Homo sapiens, UniProt O14757); assay: biochemical; details: read-out: % inhib
Chain of CHK1 (O14757 whole entry, species assumed): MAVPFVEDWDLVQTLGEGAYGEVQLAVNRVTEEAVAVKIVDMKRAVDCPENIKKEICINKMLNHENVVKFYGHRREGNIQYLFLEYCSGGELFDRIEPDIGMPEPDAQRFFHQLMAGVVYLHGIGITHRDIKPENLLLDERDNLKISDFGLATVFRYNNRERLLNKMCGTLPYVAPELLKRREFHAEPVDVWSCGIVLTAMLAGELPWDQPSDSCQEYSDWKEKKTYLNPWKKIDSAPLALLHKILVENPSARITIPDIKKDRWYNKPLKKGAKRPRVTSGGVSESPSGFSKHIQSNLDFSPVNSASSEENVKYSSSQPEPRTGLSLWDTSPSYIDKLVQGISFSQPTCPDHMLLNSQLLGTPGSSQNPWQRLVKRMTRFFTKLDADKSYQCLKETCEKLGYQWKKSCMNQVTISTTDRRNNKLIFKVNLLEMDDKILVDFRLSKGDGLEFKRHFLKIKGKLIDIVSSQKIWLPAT

[3] = Phase I study, brain tumor and brain tissue concentration; type: in vivo, human; details: concentration from brain tumor tissue, patients
TAO1 = assay: Kinase panel; type: biochemical; details: TAO1, 1 μM
NEK2 = NEK2 (Homo sapiens, UniProt P51955); assay: biochemical; details: read-out: % inhib
PAK1 = PAK1 (Homo sapiens, UniProt Q13153); assay: biochemical; details: read-out: % inhib
NEK7 = NEK7 (Homo sapiens, UniProt Q8TDX7); assay: biochemical; details: read-out: % inhib
Chain of NEK7 (Q8TDX7 whole entry): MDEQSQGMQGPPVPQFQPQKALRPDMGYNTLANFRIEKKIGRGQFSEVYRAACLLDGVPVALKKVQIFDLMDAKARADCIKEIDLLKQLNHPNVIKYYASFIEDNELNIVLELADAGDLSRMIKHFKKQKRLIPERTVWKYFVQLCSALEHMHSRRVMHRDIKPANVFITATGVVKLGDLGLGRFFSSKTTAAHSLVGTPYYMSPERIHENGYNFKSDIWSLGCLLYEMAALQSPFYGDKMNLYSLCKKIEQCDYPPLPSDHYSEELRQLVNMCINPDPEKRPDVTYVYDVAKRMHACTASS

For `CC1(C)OCCn2c1nc1c(N3CCOCC3)nc(-c3cnc(N)nc3)nc12` [GDC-0084, 5-(6,6-dimethyl-4-morpholino-8,9-dihydro-6H-[1,4]oxazino[3,4-e]purin-2-yl)pyrimidin-2-amine], the “U87 tumor volume reduction versus vehicle control” value (U87 intracranial tumors) was “approximately 70%”, the inhibition at 1 µM (Axl) was 6% and the inhibition at 1 µM (CLK3) was 7%. The fraction unbound at 4 h, 5 µM [1] was 0.067, the inhibition at 1 µM (Abl) was 2% and the inhibition at 1 µM (GCK) was 0.9%. The “In vivo Cl” value ([2]; IV 1 mg/kg) was 1.02 L/h/kg, the AUC ([2]; PO 25 mg/kg in MCT) was 47 μm·h and the Cmax ([2]; PO 25 mg/kg in MCT) was 4.6 μm. The F % ([2]; PO 25 mg/kg in MCT) was 75%, the “best overall response of progressive disease, patients” value (high-grade gliomas) was 26 patients and the “best overall response of progressive disease, percent” value (high-grade gliomas) was 55.3%. For the same compound, the “best overall response stable disease, patients” value (high-grade gliomas) was 19 patients, the “best overall response stable disease, percent” value (high-grade gliomas) was 40.4% and the inhibition at 1 µM (MYLK2 (skMLCK)) was 3%. The inhibition at 1 µM (CHK1) was 0.6%, the “blood brain barrier crossing and brain distribution” value [3] was “crosses the blood brain barrier and uniformly distributes throughout the brain” and the “% inhib” value (TAO1) was −1.3%. The inhibition at 1 µM (NEK2) was 20%, the inhibition at 1 µM (PAK1) was 7% and the inhibition at 1 µM (NEK7) was -0.3%.
